Earlier results in patent US20120289565A1, “COMBINATIONS OF TOLTERODINE AND SALIVARY STIMULANTS FOR THE TREATMENT OF OVERACTIVE BLADDER” (TheraVida, Inc., priority 2011, published 2012).

Details: 5 mg of pilocarpine

**Q.** Which “time of maximum saliva output after administration” value does the source give for `CC[C@@H]1C(=O)OC[C@@H]1Cc1cncn1C` [pilocarpine] here?
**A.** about 30 minutes
